Activity calls are given as the source filed them. The calls are words filed in the database; no cut-off is given here.

This note sets out measurements from ChEMBL document CHEMBL6120999, “Total Synthesis and Anti-Inflammatory Activity of Tectoridin and Related Isoflavone Glucosides” (J Nat Prod, 2025).

For series [1], the system named is RAW264.7. The series can be described thus: Cytotoxicity against mouse RAW264.7 cells assessed as effect on cell viability at 50 uM measured after 24 hrs by CCK-8 assay. Type of series: toxicity, cell-based. Conditions: raw264.7, 24 h. A general note: Tetrazolium dyes change colour on reduction, which living cells bring about.
Series [2] deals with RAW264.7. Kind of series: Anti-inflammatory activity in mouse RAW264.7 cells assessed as inhibition of LPS-induced NO production at 25 to 50 uM preincubated for 1 hr followed by LPS stimulation for 24 hrs by Griess reagent assay. Type of series: functional, cell-based. The following applies: dose 25-50 µM, time 25.0 hrs.
For series [3], the system named is RAW264.7. The series can be described thus: Anti-inflammatory activity against LPS-induced mouse RAW264.7 cells assessed as effect on TNF-alpha gene expression at 50 uM treated for 24 hrs by RT-qPCR analysis. Type of series: functional, cell-based. (Quantitative PCR measures a nucleic acid by following its amplification.)
Series [4] relates to RAW264.7. Kind of series: Anti-inflammatory activity against LPS-induced mouse RAW264.7 cells assessed as change in IL-6 gene expression at 50 uM treated for 24 hrs by RT-qPCR analysis. Type of series: functional, cell-based.
For series [5], the system named is RAW264.7. Kind of series: Anti-inflammatory activity against LPS-induced mouse RAW264.7 cells assessed as reduction in IL-1beta gene expression at 50 uM treated for 24 hrs by RT-qPCR analysis relative to control. Type of series: functional. Details: scale not given: the % may be the effect or the level left.
For series [6], the system named is RAW264.7. Kind of series: Anti-inflammatory activity against LPS-induced mouse RAW264.7 cells assessed as reduction in IL-1beta gene expression at 50 uM treated for 24 hrs by RT-qPCR analysis. Type of series: functional, cell-based.
The test system of series [7] is RAW264.7. The series can be described thus: Anti-inflammatory activity in mouse RAW264.7 cells assessed as inhibition of LPS-induced NO production preincubated for 1 hr followed by LPS stimulation for 24 hrs by Griess reagent assay. Type of series: functional, cell-based. Conditions: for Activity: time 25.0 hrs. A general note: Nitrite, measured by Griess reagent, commonly stands in for NO production.

In series [8] the test system is RAW264.7. The series can be described thus: Anti-inflammatory activity in mouse RAW264.7 cells assessed as reduction in LPS-induced NO production at 50 uM preincubated for 1 hr followed by LPS stimulation for 24 hrs by Griess reagent assay relative to control. Type of series: functional. The following applies: time 25 hrs. On the set-up: scale not given: the % may be the effect or the level left.

Series [9] deals with RAW264.7. Kind of series: Anti-inflammatory activity against LPS-induced mouse RAW264.7 cells assessed as decrease in TNF-alpha gene expression by RT-qPCR analysis. Type of series: functional, cell-based. The following applies: dose 10-50 µM.
The test system of series [10] is RAW264.7. The series can be described thus: Anti-inflammatory activity against LPS-induced mouse RAW264.7 cells assessed as reduction in TNF-alpha gene expression at 50 uM treated for 24 hrs by RT-qPCR analysis relative to control. Details: scale not given: the % may be the effect or the level left. Type of series: functional.
Series [11] has as its system RAW264.7. Kind of series: Anti-inflammatory activity against LPS-induced mouse RAW264.7 cells assessed as decrease in IL-6 gene expression at 50 uM treated for 24 hrs by RT-qPCR analysis relative to control. Type of series: functional. Details: scale not given: the % may be the effect or the level left.
The subject of series [12] is RAW264.7. Kind of series: Anti-inflammatory activity against LPS-induced mouse RAW264.7 cells assessed as decrease in IL-6 gene expression by RT-qPCR analysis. Type of series: functional, cell-based. The following applies: dose 10-50 µM.
Series [13] relates to RAW264.7. The series can be described thus: Anti-inflammatory activity against LPS-induced mouse RAW264.7 cells assessed as decrease in IL-1beta gene expression by RT-qPCR analysis. Type of series: functional, cell-based. The following applies: dose 10-50 µM.
Series [14] relates to RAW264.7. Kind of series: Anti-inflammatory activity against LPS-induced mouse RAW264.7 cells assessed as inhibition in TNF-alpha release at 50 uM by ELISA. Type of series: functional, cell-based.
The subject of series [15] is RAW264.7. Kind of series: Anti-inflammatory activity against LPS-induced mouse RAW264.7 cells assessed as inhibition in IL-6 release at 50 uM by ELISA. Type of series: functional, cell-based.

On to `COc1cc(C(=O)OC[C@H]2O[C@@H](Oc3cc4occ(-c5ccc(O)cc5)c(=O)c4c(O)c3OC)[C@H](O)[C@@H](O)[C@@H]2O)ccc1O`, for which the Activity result in series [1] is “Non-toxic”; in series [3], “Not active; Increase In Tnf-Alpha Gene Expression Observed”; in [4], “Not active; Increase In Il-6 Gene Expression Observed”; in series [5], 4.1%. In series [2], the result was inactive.
With `COc1c(O[C@@H]2O[C@H](CO)[C@@H](O)[C@H](O)[C@H]2O)cc2occ(-c3ccc(O[C@@H]4O[C@H](CO)[C@@H](O)[C@H](O)[C@H]4O)cc3)c(=O)c2c1O`, the Activity result in series [1] was “Non-toxic”; in series [6] it was “Not active; Increase In Il-1Beta Gene Expression Observed”. For the same molecule, the result in series [2], in series [3] and in [4] was inactive.
As for `COc1c(O[C@@H]2O[C@H](CO)[C@@H](O)[C@H](O)[C@H]2O)cc(O)c2c(=O)c(-c3ccc(O)cc3)coc12`, the results for the Activity entry in series [1] and in [5] were “Non-toxic” and 14.4%, respectively. Moreover, the outcome in series [2], in [3] and in [4] was inactive.
With `COc1c(O)cc(O)c2c(=O)c(-c3ccc(O)cc3)coc12` [PSI-TECTORIGENIN], the Activity entry in [1] is “Non-toxic”; in [7] it was “Dose-dependent-effect”; in series [8] it was ~100%; in series [9] it was “Dose-dependent-effect”; in [10], 46.3%; in series [11] it was 56%. The figures for the Activity in series [5], in series [12] and in [13] were 61%, “Dose-dependent-effect” and “Dose-dependent-effect”, respectively. Further, the IC50 in series [7] is 26.8 µM. In addition, the outcome in [14] and in series [15] was Active.
Consider `COc1c(O[C@@H]2O[C@H](CO)[C@@H](O)[C@H](O)[C@H]2O)cc2occ(-c3ccc(O)cc3)c(=O)c2c1O` [TECTORIDIN], for which the Activity result in series [1] is reported as “Non-toxic”; in [5] it was 31.2%. Besides, the result in [2], in series [3] and in [4] was inactive.
With `COc1c(O)cc2occ(-c3ccc(O)cc3)c(=O)c2c1O` [TECTORIGENIN], the Activity entry in series [1] was “Non-toxic”; in series [7], “Dose-dependent-effect”; in series [8], 48.4%; in [9] it was “Dose-dependent-effect”; in series [10], 40%; in series [11], 87.8%. Besides, the Activity in [5] is 90.8%; in series [12], “Dose-dependent-effect”; in [13], “Dose-dependent-effect”. In addition, the IC50 in series [7] amounted to 51.7 µM. Also, the outcome in series [14] and in [15] was Active.

As usually defined, the IC50 is the concentration needed to halve the response being measured.
